Earlier results, collected in patent US20020192255A1, “Liquid emanator device to deliver self-suspending insecticide droplets” (priority 2001, published 2002).

Details: thermal decomposition temperature

Row | SMILES | decomposition of the chemical occurs above
1 | CC1(C)[C@H](C=C(Cl)Cl)[C@H]1C(=O)OCc1c(F)c(F)cc(F)c1F [transfluthrin] | above 392 ° F.
2 | C#CCC1=C(C)C(OC(=O)C2C(C=C(C)C)C2(C)C)CC1=O (mixture of isomers) [ETOC-TG, (+)-2-methyl4-oxo-3-(2-propynyl)-2-cyclopentenyl (+)-cis/trans-chrysanthemate] | above 608 ° F.
